Reference: patent US6753337B2, “Alkynyl containing hydroxamic acid compounds as matrix metalloproteinase/tace inhibitors” (Wyeth Holdings Corporation, priority 1999, dated 2004)
Where a name gives a salt, the structure may show the parent alone.

Columns and labels:
Assay type in all cases: biochemical
[1] = target: TNF-α converting enzyme (TACE) (Homo sapiens, UniProt P78536); assay: Test procedure for measuring TACE inhibition (fluorescent peptidyl substrate)
Method: Using 96-well black microtiter plates, each well receives a solution composed of 10 μL TACE (final concentration 1 μg/mL), 70 μL Tris buffer, pH 7.4 containing 10% glycerol (final concentration 10 mM), and 10 μL of test compound solution in DMSO (final concentration 1 μM, DMSO concentration <1%) and incubated for 10 minutes at room temperature. The reaction is initiated by addition of a fluorescent peptidyl substrate (final concentration 100 μM to each well and then shaking on a shaker for 5 sec.
The reaction is read (excitation 340 nm, emission 420 nm) for 10 min. and the increase in fluorescence over time is plotted as a linear line. The slope of the line is calculated and represents the reaction rate.
The mean (x±sem) of the control rate is calculated and compared for statistical significance (p<0.05) with drug-treated rates using Dunnett's multiple comparison test.

[2] = target: T1, MMP-1 (Homo sapiens, UniProt P03956); assay: MMP-1 inhibition (thiopeptide or fluorescent peptide substrate); details: printed in the MMP1 IC50 column; concentration not given
T1 sequence (P03956 100-469): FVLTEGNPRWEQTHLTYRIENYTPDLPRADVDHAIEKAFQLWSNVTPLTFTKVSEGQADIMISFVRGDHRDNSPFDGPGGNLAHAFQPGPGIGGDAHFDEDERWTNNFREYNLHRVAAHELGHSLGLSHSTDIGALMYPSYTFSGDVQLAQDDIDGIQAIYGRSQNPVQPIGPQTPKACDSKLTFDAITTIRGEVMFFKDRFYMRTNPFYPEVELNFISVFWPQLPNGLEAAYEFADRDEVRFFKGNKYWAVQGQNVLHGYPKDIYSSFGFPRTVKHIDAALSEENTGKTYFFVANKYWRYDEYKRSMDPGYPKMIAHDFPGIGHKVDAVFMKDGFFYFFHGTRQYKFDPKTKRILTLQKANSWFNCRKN
Method: (§1) These standard pharmacological test procedures are based on the cleavage of a thiopeptide substrates such as Ac-Pro-Leu-Gly(2-mercapto-4-methyl-pentanoyl)-Leu-Gly-OEt by the matrix metalloproteinases MMP-1, MMP-13 (collagenases) or MMP-9 (gelatinase), which results in the release of a substrate product that reacts colorimetrically with DTNB (5,5′-dithiobis(2-nitro-benzoic acid)). The enzyme activity is measured by the rate of the color increase. The thiopeptide substrate is made up fresh as a 20 mM stock in 100% DMSO and the DTNB is dissolved in 100% DMSO as a 100 mM stock and stored in the dark at room temperature. Both the substrate and DTNB are diluted together to 1 mM with substrate buffer (50 mM HEPES pH 7.5, 5 mM CaCl2) before use. The stock of enzyme is diluted with buffer (50 mM HEPES, pH 7.5, 5 mM CaCl2, 0.02% Brij) to the desired final concentration. The buffer, enzyme, vehicle or inhibitor, and DTNB/substrate are added in this order to a 96 well plate (total reaction volume of 200 μl) and the increase in color is monitored spectrophotometrically for 5 minutes at 405 nm on a plate reader and the increase in color over time is plotted as a linear line.
(§2) Alternatively, a fluorescent peptide substrate is used. In this test procedure, the peptide substrate contains a fluorescent group and a quenching group. Upon cleavage of the substrate by an MMP, the fluorescence that is generated is quantitated on the fluorescence plate reader. The assay is run in HCBC assay buffer (50 mM HEPES, pH 7.0, 5 mM Ca^+2, 0.02% Brij, 0.5% Cysteine), with human recombinant MMP-1, MMP-9, or MMP-13. The substrate is dissolved in methanol and stored frozen in 1 mM aliquots. For the assay, substrate and enzymes are diluted in HCBC buffer to the desired concentrations. Compounds are added to the 96 well plate containing enzyme and the reaction is started by the addition of substrate. The reaction is read (excitation 340 nm, emission 444 nm) for 10 min. and the increase in fluorescence over time is plotted as a linear line.
(§3) For either the thiopeptide or fluorescent peptide test procedures, the slope of the line is calculated and represents the reaction rate. The linearity of the reaction rate is confirmed (r^2>0.85). The mean (x±sem) of the control rate is calculated and compared for statistical significance (p<0.05) with drug-treated rates using Dunnett's multiple comparison test. Dose-response relationships can be generated using multiple doses of drug and IC50 values with 95% CI are estimated using linear regression.

[3] = target: MMP-9 (Homo sapiens, UniProt P14780); assay: MMP-9 inhibition (thiopeptide or fluorescent peptide substrate); details: for MMP9 % inhibition: printed in the MMP9 IC50 column, concentration not given
Method: as §1, §2, §3

[4] = target: MMP-13 (Homo sapiens, UniProt P45452); assay: MMP-13 inhibition (thiopeptide or fluorescent peptide substrate); details: for MMP13 % inhibition: MMP13 IC50, concentration not given; for IC50: read-out: MMP13 IC50
Method: The enzyme activity is measured by the rate of the color increase. The thiopeptide substrate is made up fresh as a 20 mM stock in 100% DMSO and the DTNB is dissolved in 100% DMSO as a 100 mM stock and stored in the dark at room temperature. Both the substrate and DTNB are diluted together to 1 mM with substrate buffer (50 mM HEPES pH 7.5, 5 mM CaCl2) before use. The stock of enzyme is diluted with buffer (50 mM HEPES, pH 7.5, 5 mM CaCl2, 0.02% Brij) to the desired final concentration.
as §2, with “substrate.” for “substrate. The reaction is read (excitation 340 nm, emission 444 nm) for 10 min. and the increase in fluorescence over time is plotted as a linear line.”
For either the thiopeptide or fluorescent peptide test procedures, the slope of the line is calculated and represents the reaction rate. […] The mean (x±sem) of the control rate is calculated and compared for statistical significance (p<0.05) with drug-treated rates using Dunnett's multiple comparison test.

TNF-α converting enzyme (TACE), sequence (P78536 215-824): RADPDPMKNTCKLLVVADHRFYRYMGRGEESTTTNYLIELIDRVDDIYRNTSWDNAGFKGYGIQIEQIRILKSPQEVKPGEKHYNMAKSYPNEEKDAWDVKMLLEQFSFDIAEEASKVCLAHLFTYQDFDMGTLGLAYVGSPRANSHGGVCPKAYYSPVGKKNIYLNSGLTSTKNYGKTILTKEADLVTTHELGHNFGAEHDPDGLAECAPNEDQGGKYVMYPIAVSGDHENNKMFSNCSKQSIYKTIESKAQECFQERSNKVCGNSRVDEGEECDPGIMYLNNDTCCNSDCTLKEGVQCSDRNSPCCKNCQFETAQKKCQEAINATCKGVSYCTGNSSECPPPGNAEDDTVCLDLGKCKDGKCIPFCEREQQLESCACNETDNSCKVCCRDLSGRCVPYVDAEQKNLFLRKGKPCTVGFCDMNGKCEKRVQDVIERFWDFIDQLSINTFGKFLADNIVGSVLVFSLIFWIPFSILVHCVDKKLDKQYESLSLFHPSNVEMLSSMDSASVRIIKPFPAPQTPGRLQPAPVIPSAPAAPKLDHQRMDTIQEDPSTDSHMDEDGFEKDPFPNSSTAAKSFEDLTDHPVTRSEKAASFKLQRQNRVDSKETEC
MMP-9, sequence (P14780 94-707): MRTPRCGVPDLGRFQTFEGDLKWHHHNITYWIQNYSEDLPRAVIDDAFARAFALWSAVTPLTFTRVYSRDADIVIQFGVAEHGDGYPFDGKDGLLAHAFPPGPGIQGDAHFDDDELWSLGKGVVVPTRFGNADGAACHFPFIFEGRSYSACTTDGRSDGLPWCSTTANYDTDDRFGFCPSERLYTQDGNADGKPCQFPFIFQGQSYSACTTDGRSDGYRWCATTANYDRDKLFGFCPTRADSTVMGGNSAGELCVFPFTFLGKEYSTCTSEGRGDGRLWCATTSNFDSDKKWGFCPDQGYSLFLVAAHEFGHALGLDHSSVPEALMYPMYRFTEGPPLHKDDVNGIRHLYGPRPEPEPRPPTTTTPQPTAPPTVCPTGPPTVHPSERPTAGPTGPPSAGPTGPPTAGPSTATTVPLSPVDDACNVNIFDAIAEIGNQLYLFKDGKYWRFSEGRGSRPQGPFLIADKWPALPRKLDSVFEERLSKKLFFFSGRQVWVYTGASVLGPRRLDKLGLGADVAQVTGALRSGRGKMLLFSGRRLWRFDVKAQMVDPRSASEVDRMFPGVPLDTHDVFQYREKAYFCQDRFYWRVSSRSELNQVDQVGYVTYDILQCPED

| IC50 [1] [nM] | IC50 [4] [nM] | SMILES | further results |
| --- | --- | --- | --- |
| 393 |  | CCCCCC#CCOc1ccc(S(=O)(=O)C2(C(=O)NO)CCN(Cc3ccc(Br)cc3)CC2)cc1 [Example 6, 1-(4-Bromo-benzyl)-4-(4-oct-2-ynyloxy-benzenesulfonyl)-piperdine-4-carboxylic acid hydroxyamide] | MMP1 % inhibition [2]: 32.9%; MMP9 % inhibition [3]: 58.9%; MMP13 % inhibition [4]: 60% |
|  | 1470 | CC#CCOc1ccc(SC2(C(=O)NO)CCN(Cc3ccc(Br)cc3)CC2)cc1 [Example 16, 1-(4-Bromo-benzyl)-4-(4-but-2-ynyloxy-phenylsulfanyl)-piperidine-4-carboxylic acid hydroxyamide] | inhibition at 1 µM [1]: 46%; IC50 ([3]; read-out: MMP9 IC50): 2060 nM |
| 32.6 | 1730 | CC#CCOc1ccc(S(=O)(=O)CC2(C(=O)NO)CCN(C(=O)c3cccnc3)CC2)cc1 [Example 49, 4-({[4-(But-2-ynyloxy)phenyl]sulfonyl}methyl)-N-hydroxy-1-(pyridin-3-ylcarbonyl)piperidine-4-carboxamide triflouroacetic acid salt] |  |
|  | 352 | CC#CCOc1ccc(S(=O)(=O)CC2(C(=O)NO)CCN(C(=O)c3ccccc3)CC2)cc1 [Example 50, 1-Benzoyl-4-({[4-(but-2-ynyloxy)phenyl]sulfonyl}-methyl)-N-hydroxypiperidine-4-carboxamide] |  |
| 20.8 | 1160 | CC#CCOc1ccc(S(=O)(=O)CC2(C(=O)NO)CCN(C(=O)Nc3ccccc3)CC2)cc1 [Example 53, 4-({[4-(But-2-ynyloxy)phenyl]sulfonyl}methyl)-N-4-hydroxy-N-1-phenyl-piperidine-1,4-dicarboxamide] |  |
|  | 3.2 | CC#CCOc1ccc(S(=O)(=O)CC2(C(=O)NO)CCN(C(=O)N(C)c3ccccc3)CC2)cc1 [Example 56, 4-({[4-(But-2-ynyloxy)phenyl]sulfonyl}methyl)-N-4-hydroxy-N-1-methyl-N-1-phenylpiperidine-1,4-dicarboxamide] |  |
| 56.4 | 575 | CC#CCOc1ccc(S(=O)(=O)CC2(C(=O)NO)CCN(C(=O)CNCc3ccccc3)CC2)cc1 [Example 61, 1-[2-(Benzylamino)acetyl]-4-({[4-(but-2-ynyloxy)phenyl]sulfonyl}methyl)-N-hydroxypiperidine-4-carboxamide] |  |

Continued, molecule first:

| SMILES | IC50 [1] [nM] | IC50 [4] [nM] | further results |
| --- | --- | --- | --- |
| CC#CCOc1ccc(SC2(C(=O)NO)CCN(C(=O)OC(C)(C)C)CC2)cc1 [Example 14, 4-(4-But-2-ynyloxy-phenylsulfanyl)-4-hydroxycarbamoyl-piperidine-1-carboxylic acid tert-butyl ester] |  |  | inhibition at 1 µM [1]: 67%; MMP1 % inhibition [2]: 26%; MMP9 % inhibition [3]: 21%; MMP13 % inhibition [4]: 32% |
| CC#CCOc1ccc(S(=O)(=O)CC2(C(=O)NO)CCN(CC)CC2)cc1 [Example 46, 4-({[4-(But-2-ynyloxy)phenyl]sulfonyl}methyl)-1-ethyl-N-hydroxypiperidine-4-carboxamide triflouroacetic acid salt] | 105 |  | MMP13 % inhibition [4]: 55.6% |
| CC#CCOc1ccc(S(=O)(=O)CC2(C(=O)NO)CCN(Cc3ccc(Cl)s3)CC2)cc1 [Example 47, 4-({[4-(But-2-ynyloxy)phenyl]sulfonyl}methyl)-1-[(5-chlorothien-2-yl)methyl]-N-hydroxypiperidine-4-carboxamide triflouroacetic acid salt] | 227 | 275 |  |
| CC#CCOc1ccc(S(=O)(=O)CC2(C(=O)NO)CCN(C(=O)NCC)CC2)cc1 [Example 52, 4-({[4-(But-2-ynyloxy)phenyl]sulfonyl}methyl)-N-1-ethyl-N-4-hydroxypiperidine-1,4-dicarboxamide] | 41.8 | 3710 |  |
| CC#CCOc1ccc(S(=O)(=O)CC2(C(=O)NO)CCN(C(=O)N(CC)CC)CC2)cc1 [Example 54, 4-({[4-(But-2-ynyloxy)phenyl]sulfonyl}methyl)-N-1-,N-1-diethyl-N-4-hydroxypiperidine-1,4-dicarboxamide] | 32.2 | 104 |  |
| CC#CCOc1ccc(S(=O)(=O)CC2(C(=O)NO)CCN(C(=O)N3CCOCC3)CC2)cc1 [Example 55, 4-({[4-(But-2-ynyloxy)phenyl]sulfonyl}methyl)-N-hydroxy-1-(morpholin-4-ylcarbonyl)piperdine-4-carboxamide] | 70.7 | 600 |  |
| CC#CCOc1ccc(S(=O)(=O)CC2(C(=O)NO)CCN(C(=O)OCCCCCCCC)CC2)cc1 [Example 57, Octyl-4-({[4-(but-2-ynyloxy)phenyl]sulfonyl}methyl)-4-[(hydroxyamino)-carbonyl]piperidine-1-carboxylate] | 694 | 458 |  |
| CC#CCOc1ccc(S(=O)(=O)CC2(C(=O)NO)CCN(C(=O)Oc3ccc(OC)cc3)CC2)cc1 [Example 58, 4-Methoxyphenyl-4-({[4-(but-2-ynyloxy)phenyl]sulfonyl}methyl)-4-[(hydroxyamino)carbonyl]piperidine-1-carboxylate] | 21.1 | 179 |  |
| CC#CCOc1ccc(S(=O)(=O)CC2(C(=O)NO)CCN(S(=O)(=O)c3ccccc3)CC2)cc1 [Example 59, 4-({[4-(But-2-ynyloxy)phenyl]sulfonyl}methyl)-N-hydroxyl-(phenylsulfonyl)piperidine-4-carboxamide] | 53.3 | 11.2 |  |
| CC#CCOc1ccc(S(=O)(=O)CC2(C(=O)NO)CCN(S(=O)(=O)c3cn(C)cn3)CC2)cc1 [Example 60, 4-({[4-(But-2-ynyloxy)phenyl]sulfonyl}methyl)-N-hydroxy-1-1-[(1-methyl-1H-imidazol-4-yl)-sulfonyl]piperidine-4-carboxamide] | 38.4 | 8 |  |
| CC#CCOc1ccc(S(=O)(=O)CC2(C(=O)NO)CCN(C(=O)CN3CCN(C)CC3)CC2)cc1 [Example 63, 4-({[4-(But-2-ynyloxy)phenyl]sulfonyl}methyl)-N-hydroxy-1-[2-(4-methylpiperazin-1-yl)acetyl]piperidine-4-carboxamide] | 66.6 | 2230 |  |
